Experimental data: patent publication US4067986A, “Novel penicillanic acid” (Gist-Brocades N.V., priority 1974, dated 1978)
Values after ≈ are worked out from the molar mass of the structure shown.

Legend:
Type in all cases: cell-based
[1] = tested on: Pseudomonas aeruginosa A 1058; assay: MIC, agar serial dilution test; conditions: A1058
[2] = tested on: Haemophilus suis A 2096; assay: MIC, micro serial dilution test; conditions: A2096, micro serial dilution test (brackets)
[3] = tested on: Klebsiella pneumoniae A 809; assay: MIC, agar serial dilution test; conditions: A809
[4] = tested on: Streptococcus faecalis L 80; assay: MIC, agar serial dilution test; conditions: Enterococcus faecalis, L80
[5] = tested on: Pasteurella multocida A 723; assay: MIC, agar serial dilution test; conditions: A723
[6] = tested on: Proteus mirabilis L 93; assay: MIC, agar serial dilution test; conditions: L93
[7] = tested on: Streptococcus haemolyticus A 1088; assay: MIC, agar serial dilution test; conditions: A1088
[8] = tested on: Proteus rettgeri A 821; assay: MIC, agar serial dilution test; conditions: Providencia rettgeri, A821
[9] = tested on: Salmonella typhimurium R 172; assay: MIC, agar serial dilution test; conditions: Salmonella enterica
[10] = tested on: Diplococcus pneumoniae L 54; assay: MIC, agar serial dilution test; conditions: Streptococcus pneumoniae, L54
[11] = tested on: Proteus mirabilis A 1200; assay: MIC, agar serial dilution test; conditions: A1200
[12] = tested on: Haemophilus suis A 2096; assay: MIC, agar serial dilution test; conditions: A2096
[13] = tested on: Pseudomonas aeruginosa 2396; assay: MIC, agar serial dilution test
[14] = tested on: Proteus mirabilis H 3; assay: MIC, agar serial dilution test; conditions: H3
[15] = tested on: Pseudomonas aeruginosa H 10; assay: MIC, agar serial dilution test; conditions: H10

MIC [1] | MIC [2] | MIC [3] | MIC [4] | MIC [5] | MIC [6] | MIC [8] | MIC [9] | MIC [10] | MIC [11] | MIC [12] | MIC [13] | MIC [14] | MIC [15] | SMILES | MIC [7]
37 µg/mL (≈ 97.8 µM) | 0.2 µg/mL (≈ 0.529 µM) | > 100 µg/mL | 25 µg/mL (≈ 66.1 µM) | 0.2 µg/mL (≈ 0.529 µM) | 0.5 µg/mL (≈ 1.32 µM) | 0.3 µg/mL (≈ 0.793 µM) | 6 µg/mL (≈ 15.9 µM) | 0.75 µg/mL (≈ 1.98 µM) | – | – | – | – | – | CC1(C)S[C@@H]2[C@H](NC(=O)C(C(=O)O)c3ccccc3)C(=O)N2[C@H]1C(=O)O (stereo partly drawn) [carbenicillin] | 0.1 µg/mL (≈ 0.264 µM)
50 µg/mL (≈ 143 µM) | – | – | – | – | 3 µg/mL (≈ 8.59 µM) | 3 µg/mL (≈ 8.59 µM) | 3 µg/mL (≈ 8.59 µM) | 0.05 µg/mL (≈ 0.143 µM) | 3 µg/mL (≈ 8.59 µM) | 0.15 µg/mL (≈ 0.429 µM) | 50 µg/mL (≈ 143 µM) | 3 µg/mL (≈ 8.59 µM) | > 100 µg/mL | CC1(C)S[C@@H]2[C@H](NC(=O)[C@H](N)c3ccccc3)C(=O)N2[C@H]1C(=O)O [ampicillin] | 0.75 µg/mL (≈ 2.15 µM)
